Test results: article PMC5652740, “Inhibition of HIV-1 infection in humanized mice and metabolic stability of protein phosphatase-1-targeting small molecule 1E7-03” (Oncotarget, 2017)
Values joined by “and” are separate entries in the source; they are usually repeats but may differ in a detail not shown here. Identical values can stand only once. Like-named read-outs stand apart in the source and are kept apart here.

How the values were obtained:
CEM T cells = assay: Cellular permeability assay by LC/FT-MS; format: in vitro ADME; conditions: 10 μM, 24 hrs; for CEM T cell permeability, % of Total, Cells: accumulation in cell lysate
Method: CEM T cells were seeded in 6-well plates (0.5 × 10^6 cells/ml) and treated by 10 μM of the indicated compounds. Two samples were generated for each compound (in triplicates) obtained from cellular lysate and media sample. Cell culture media samples (100 μl) were collected from each well after 24 hrs of incubation and total protein was precipitated by the addition of 400 μl cold acetone. […] To obtain cell lysates, the cells were suspended in 300 μl cold whole cell lysis buffer (50 mM Tris-HCl, pH 7.5, 0.5 M NaCl, 1% NP-40, 0.1% SDS) and sonicated. A 100 μl aliquot of the cell lysate was combined with 400 μl cold acetone to precipitate proteins. All samples were centrifuged at 13,000 × g for 5 min. Supernatants containing compounds and their metabolites were collected and evaporated to dryness on SpeedVac concentrator. The dry pellet was reconstituted in 50 μl acetonitrile for LC/FT-MS analysis.

[1] = Stability in human liver microsomes; format: in vitro ADME; conditions: 1 hr; for % of Total (Liver microsomes, Human): 10 μM 1E7-03, 37°C, 1E7-03 remaining and DP1, DP3 formed
Method: (§1) The metabolic stability of 1E7-03 was also investigated using a pool of human and mouse liver microsomes (HMS9PL, MSS9PL, Thermo Scientific) following manufacturer's instructions. In brief, incubations were conducted at 37 ± 1°C in mixtures containing 5 μl of human or mouse liver microsomes (20 mg/ml), 183 μl of potassium phosphate buffer (pH 7.4, 100 mM) and 2 μl of 1E7-03 (10 mM sock solution of 1E7-03 in DMSO was diluted into 1 mM by PBS). The mixture was pre-incubated for 5 min, then initiated the reactions with the addition of 10 μl 20 mM NADPH (Sigma Aldrich). The reactions were terminated after 1 hr incubation by adding 800 μl cold acetone. The mixture was kept at 4°C for 30 min, and the precipitated protein was removed by centrifugation (13, 000 g for 10 min at 4°C). A 250 μl aliquot of supernatant was transferred to a clean test tube and evaporated to dryness using a SpeedVac concentrator. The residue was reconstituted in 50 μl of acetonitrile with 0.1% FA for LC/FT-MS analysis.

[2] = biological target: T1, Recombinant PP1 (human PP1α residues 7–300) (Homo sapiens, UniProt P62136); assay: Surface plasmon resonance direct binding to immobilized PP1; conditions: SPR
T1 construct: human PP1α (residues 7–300); His; made in house; host or cells: BL21 (DE3) Escherichia coli, co-expressed with GroEL/GroES chaperones
T1 sequence (P62136 7-300): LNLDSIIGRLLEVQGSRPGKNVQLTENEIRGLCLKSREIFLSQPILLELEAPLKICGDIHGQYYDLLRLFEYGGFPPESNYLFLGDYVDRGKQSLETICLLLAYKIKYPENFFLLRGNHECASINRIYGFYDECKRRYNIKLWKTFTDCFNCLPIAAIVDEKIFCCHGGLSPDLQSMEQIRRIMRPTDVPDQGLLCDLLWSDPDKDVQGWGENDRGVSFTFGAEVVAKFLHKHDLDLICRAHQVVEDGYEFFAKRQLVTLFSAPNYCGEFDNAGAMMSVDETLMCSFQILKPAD
Method: PP1 was purified as previously described. BL21 (DE3) Escherichia coli cells (Invitrogen, Carlsbad, CA, USA) were -transformed with a vector expressing human PP1α (residues 7–300) and pGR07, which expresses GroEL/[…] chaperones (both gifts from Dr Mathieu Bollen and Monique Beullens, KU Leuven, Belgium). The cells were grown in media supplemented with 1 mM MnCl2 at 30°C to an A600 =0.5. Arabinose (2 g per L) was added to induce expression of the GroEL/GroES chaperones. When A600 =1 was reached, the cells were transferred to 10°C and PP1 expression was induced with 0.1 mM Isopropyl β-D-1-thiogalactopyranoside for 20 hrs. Harvested cells were lysed using sonication in a solution containing in 50 mM Tris-HCl (pH 8.0), 5 mM imidazole, 700 mM NaCl, 1 mM MnCl2, 0.1% Triton X-100 (v/v) and protease inhibitors. His-tagged PP1 was purified using a Ni-NTA IMAC column (Qiagen, Valencia, CA, USA). Purified PP1 was dialyzed and stored at −70°C in 50 mM Tris-HCl (pH 8.0), 5 mM imidazole, 700 mM NaCl and 1 mM MnCl2. PP1 activity was then assayed as previously described.
The SPR measurements were conducted on Biacore T200 instrument (GE Healthcare, Piscataway, NJ) at 25°C. Recombinant PP1 was immobilized on a CM5 chip by amine coupling (GE Healthcare). PP1 (200 nM) was captured on flow cell 2 in 10 mM acetate buffer, pH 5.0, supplemented with 2 mM MnCl2. […] Flow cell 1 was used as a reference surface to subtract background signal. Also injections of the buffer alone were used to provide double reference subtraction. […] For binding and kinetics experiments, all compounds were diluted in the running buffer, at 40 μM, 20 μM, 10 μM, 5 μM, 2.5 μM, 1.25 μM and 0 μM and then passed over the two flow cells at a flow rate of 100 μl/min for 60 sec. The number of response units was recorded after the subtraction of the reference flow cell's value (Fc2-1). Two repetitions were performed for each injection. Data were analyzed using the BiaEvaluation software of Biacore with a 1:1 binding model. […] All the small molecular weight compounds were used at 1 μM.

[3] = Stability in mouse liver microsomes; format: in vitro ADME; conditions: 10 μM 1E7-03, 37°C, 1 hr; 1E7-03 remaining and DP1, DP3 formed
Method: as §1

[4] = biological target: T2, QuantiLum Recombinant Luciferase (Photinus pyralis, UniProt P08659); assay: Purified luciferase inhibition in vitro; format: biochemical; conditions: for effect on luciferase activity in vitro: in words, 1E7-03 at concentrations below 100 μM; for IC50: purified luciferase, room temperature, 10 min
T2 construct: purchased
T2 sequence (P08659 whole entry): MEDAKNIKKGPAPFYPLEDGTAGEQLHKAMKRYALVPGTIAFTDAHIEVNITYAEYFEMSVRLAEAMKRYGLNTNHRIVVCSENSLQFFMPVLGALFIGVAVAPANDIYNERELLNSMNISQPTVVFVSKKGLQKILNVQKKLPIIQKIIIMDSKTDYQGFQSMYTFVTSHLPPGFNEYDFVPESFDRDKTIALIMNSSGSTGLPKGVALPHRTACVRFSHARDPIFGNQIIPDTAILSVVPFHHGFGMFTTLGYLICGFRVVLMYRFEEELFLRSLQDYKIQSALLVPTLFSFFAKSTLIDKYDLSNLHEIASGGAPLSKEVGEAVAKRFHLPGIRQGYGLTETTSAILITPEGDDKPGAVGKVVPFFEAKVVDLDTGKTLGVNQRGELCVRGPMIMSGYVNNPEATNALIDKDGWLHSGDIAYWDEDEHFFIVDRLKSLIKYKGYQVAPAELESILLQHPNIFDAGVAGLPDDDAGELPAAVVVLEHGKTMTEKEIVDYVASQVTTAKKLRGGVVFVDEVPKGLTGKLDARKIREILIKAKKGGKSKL
Method: QuantiLum Recombinant Luciferase (20 ng/ml in PBS) was added into 96-well plate (100 μl/well) and incubated with serial dilutions of the compounds or vehicle (DMSO) under room temperature for 10 min. 100 μl of reconstituted luciferase buffer (Luclite Kit, Perkin Elmer) was added to each well, incubated for another 10 min and luminescence was measured using Glo-Max Microplate Multimode reader (Promega).

[5] = 1:1 binding model, 25°C, read-out: PP1 WT KD
[6] = as quoted in the discussion, read-out: KD

Compound | CEM T cell permeability, % of Total, Cells (CEM T cells; 37°C) | % of Total (Liver microsomes, Human) [1] [%] | % of 1E7-03 degraded and converted into DP1 ([1]; human liver microsomes) [%] | Kd [2, 5] [µM] | Kd [2, 6] [µM] | % of Total (Liver microsomes, Mouse) [3] | effect on luciferase activity in vitro [4] | IC50 [4] [µM] | CEM T cell permeability, % of Total, Media (CEM T cells; 37°C, amount in media) [%] | times less efficient cellular accumulation than 1E7-03 (CEM T cells; CEM T cells)
CCNC(=O)NC(=O)C(C)OC(=O)c1c2c(nc3ccccc13)/C(=C/c1ccc(OC)c(OC)c1)CC2 (stereo not shown) [1E7-03] | 3% | 59.39 | 39 | 6.16 | 6.2 | 91% and 90.61% | no effect | > 180 | – | –
COc1ccc(/C=C2\CCCc3c2nc2ccccc2c3C(=O)OC(C)C(=O)OC(C)(C)C)cc1OC (stereo not shown) [DP1-07] | 2.7% and 2.73% | – | – | – | – | – | did not inhibit | – | 97.27 | –
COc1ccc(/C=C2\CCc3c2nc2ccccc2c3C(=O)OC(C)C(=O)O)cc1OC (stereo not shown) [DP1] | – | 39.34 | – | 3.75 | ~4 | 8.36% | – | 37 | – | more than 10 times
COc1ccc(/C=C2\CCc3c2nc2ccccc2c3C(=O)O)cc1OC [DP3] | – | 1.27 | – | 4.88 | ~4 | 1.03% | – | 7.2 | – | –
